Data taken from patent US20250009902A1, “ARTIFICIAL ENZYME-BACTERIA SYSTEM AND USES THEREOF” (NATIONAL UNIVERSITY OF SINGAPORE, priority 2021, published 2025).

Legend:
HT-29 cells [1] = test: HT-29 cell viability, MTT assay, with or without H2O2; settings: 200 μM H2O2, MTT; H2O2 alone approximately 20%; FIG. 4k
Protocol: (§1) For the protection of cells from H2O2 induced oxidative stress, different concentrations of BL@B-SA50 were cultured with HT-29 cells in the absence or presence of H2O2 (200 μM) for 24 hours. Relative cell viabilities were tested by the 3-(4,5-dimethylthiazol-2-yl)-2,5-diphenyltetrazolium bromide (MTT) assay.
(§2) The concentrations of nanomaterials in different measurements of MTT assays were 0.625 μg/mL while that for confocal microscopy and flow cytometry were both 2.5 μg/mL. The viabilities of HT-29 cells without treatment were defined as 100%, while the ROS content of HT-29 cells without treatment was defined as 1.

HT-29 cells [2] = system: HT-29 cells
Protocol: as §1, §2

With Bifidobacterium longum [BL] the “viability of HT29 cells exposed to H2O2” value (HT-29 cells [1]) was “also enhanced” and the “relative cell viability of HT29 cells (cytotoxicity / growth)” value (HT-29 cells [2]) was “could promote the growth of HT29”.
